Read-outs that look alike come from different tables or passages of the source.
Legend:
RB1^del G401 cells [1] = assay: Cell viability (CellTiter-Glo), G401 RB1^del clones E1 and F2; type: cell-based; settings: for overcoming TAZ resistance in RB1^del G401 cells: seleciclib, alisertib 9 days, barasertib 6 days; for EC50: Homo sapiens, G-401, 144 h, barasertib for 6 days, read-out: half-maximal effective concentration
Experimental: G401 cells with RB1 mutations were engineered by Synthego. […] Ribonucleprotein containing spCas9 and sgRNA was transfected into G401 cells by electroporation. […] The cells were then single-cell cloned and re-verified by Sanger sequencing.
Drug and media were replaced on Days 4, 7, and 11. […] CellTiter-Glo reagent was freshly reconstituted on the day of measurement and added in a 1:1 proportion to cell media. […] Cell line doubling time was determined by measuring cell viability every 24 hours over the course of 4 days, and fitting the cell viability to a two-parameter exponential curve. […] After the addition of cells, drugs were added using a pin tool (stainless steel pins with 50 nL slots, V&P Scientific) mounted onto a liquid handling robot (CyBio Well vario, Analytik Jena). For analysis of synergy, we used the synergyFinder package (2). Outliers due to pinning errors were excluded after manual examination.

CHK1 = target: T1, CHK1 (Homo sapiens, UniProt O14757); assay: Western blot of CHK1 autophosphorylation at S296; type: cell-based; settings: SRA737 3 μM, 2 days
T1 construct: endogenous in cells; host or cells: G401 rhabdoid tumor cells
T1 sequence (O14757 1-476): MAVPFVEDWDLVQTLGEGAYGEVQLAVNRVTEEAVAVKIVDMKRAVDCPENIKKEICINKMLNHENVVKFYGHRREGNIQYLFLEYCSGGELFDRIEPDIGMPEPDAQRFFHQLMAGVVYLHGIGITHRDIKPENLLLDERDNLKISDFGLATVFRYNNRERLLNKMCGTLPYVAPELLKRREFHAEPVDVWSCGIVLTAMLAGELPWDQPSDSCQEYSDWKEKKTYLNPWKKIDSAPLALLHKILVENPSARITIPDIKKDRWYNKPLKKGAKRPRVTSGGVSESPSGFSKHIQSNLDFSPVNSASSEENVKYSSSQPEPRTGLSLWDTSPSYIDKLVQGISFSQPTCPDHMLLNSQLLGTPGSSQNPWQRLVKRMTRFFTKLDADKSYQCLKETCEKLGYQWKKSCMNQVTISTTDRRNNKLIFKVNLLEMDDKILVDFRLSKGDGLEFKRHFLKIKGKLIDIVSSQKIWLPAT
Experimental: To assess protein expression by Western immunoblotting, pellets of 1 million cells were prepared and washed once in cold PBS. Cells were resuspended in 100-130 μL of RIPA lysis buffer (50 mM Tris-HCl, pH 8.0, 150 mM NaCl, 1.0% NP-40, 0.5% sodium deoxycholate, 0.1% sodium dodecyl sulfate) and incubated on ice for 10 minutes. Cell suspensions were then disrupted using a Covaris S220 adaptive focused sonicator for 5 minutes (peak incident power: 35W, duty factor: 10%, 200 cycles/burst) at 4° C. Lysates were cleared by centrifugation at 18,000 g for 15 min at 4° C. Protein concentration was assayed using the DC Protein Assay (Bio-Rad) and 15-35 μg whole cell extract was used per sample. Samples were boiled at 95° C. in Laemmli buffer (Bio-Rad) with 40 mM DTT and resolved using sodium dodecyl sulfate-polyacrylamide gel electrophoresis. Proteins were transferred to Immobilon FL PVDF membranes (Millipore), and membranes were blocked using Intercept Blocking buffer (Li-Cor). […] Blotted membranes were visualized using goat secondary antibodies conjugated to IRDye 680RD or IRDye 800CW (Li-Cor, 926-68071 and 926-32210) at 1:15,000 and the Odyssey CLx fluorescence scanner, according to manufacturer's instructions (Li-Cor). […]

[2] = test system: EZH2^Y666N expressing G401 rhabdoid tumor cells; assay: Cell viability (CellTiter-Glo), G401 clones expressing doxycycline-inducible EZH2^Y666N; type: cell-based; settings: 10 μM drug, 14 days
Experimental: (§1) Drug and media were replaced on Days 4, 7, and 11. CellTiter-Glo assays were performed on Day 14, with luminescence readings taken using an automated fluorescence plate reader (Tecan). CellTiter-Glo reagent was freshly reconstituted on the day of measurement and added in a 1:1 proportion to cell media. […] Cell line doubling time was determined by measuring cell viability every 24 hours over the course of 4 days, and fitting the cell viability to a two-parameter exponential curve. […] After the addition of cells, drugs were added using a pin tool (stainless steel pins with 50 nL slots, V&P Scientific) mounted onto a liquid handling robot (CyBio Well vario, Analytik Jena). For analysis of synergy, we used the synergyFinder package (2). Outliers due to pinning errors were excluded after manual examination.

RB1^WT G401 cells [3] = assay: Cell viability (CellTiter-Glo) dose response, G401 RB1^WT; type: cell-based; settings: Homo sapiens, G-401, 144 h, barasertib for 6 days, read-out: half-maximal effective concentration
Experimental: as §1

MRT and ES cell lines = assay: TAZ dose-response curves in a panel of MRT and ES cell lines; type: cell-based; settings: 13 days, AUC integrated from 40 nM to 50 μM
Experimental: as §1

RB1^del G401 cells [4] = assay: Flow cytometry cell cycle analysis (EdU/propidium iodide), G401 RB1^del clones; type: cell-based; settings: 1 μM TAZ, 11 days
Experimental: (§2) On Day 11, cells were pulsed with EdU for 1 hour. Cells were then harvested and processed for flow cytometry using the manufacturer's protocol (Click-iT, Invitrogen). Briefly, cells were washed with PBS with 1% BSA, permeabilized, and incubated with AlexaFluor647 for 30 minutes. DNA content was measured using propidium iodide (0.05 μg/μL). Cells were analyzed on a CytoFLEX LX (Beckman Coulter).

RB1^WT G401 cells [5] = assay: Flow cytometry cell cycle analysis (EdU/propidium iodide), G401 RB1^WT; type: cell-based; settings: 1 μM TAZ, 11 days
Experimental: as §2

G401 cells = settings: single drug, 7 days; DMSO 0.061
Experimental: Immunofluorescence for γH2AX was performed on cells plated on Millicell EZ Slide glass slides (EMD Millipore), coated for 45 minutes with bovine plasma fibronectin (Millipore Sigma). After drug treatment, cells were washed once with PBS and fixed in 4% formaldehyde for 10 minutes at room temperature. Slides were then washed three times in PBS for 5 minutes, permeabilized for 15 minutes in 0.3% Triton X-100, washed again in PBS three times, and blocked with 5% goat serum (Millipore Sigma, G9023) in PBS for 1 hour at room temperature. Slides were incubated with mouse anti-γH2A.X primary antibody (Sigma-Aldrich, 05-636) at 1:500 in blocking buffer for 1 hour, washed three times in PBS, and incubated with goat anti-mouse secondary antibody conjugated to AlexaFluor555 (Invitrogen, A-21422) at 1:1,000. Cells were then counterstained with DAPI at 1:1,000 for 10 minutes and treated with ProLong Diamond Antifade Mountant with DAPI (Invitrogen, P36962) for 48 hours.
Images were acquired on a Leica SP5 confocal microscope in the upright configuration at 63× magnification. Images were then processed using a custom pipeline in CellProfiler (6). Per-cell integrated γH2A.X intensity was normalized against per-cell integrated DAPI intensity.

CC[C@H](CO)Nc1nc(NCc2ccccc2)c2ncn(C(C)C)c2n1 [seleciclib]
overcoming TAZ resistance in RB1^del G401 cells (RB1^del G401 cells [1]): able to overcome TAZ resistance

N#Cc1cnc(Nc2cc(NC[C@H]3CNCCO3)c(C(F)(F)F)cn2)cn1 [SRA737]
CHK1 auto-phosphorylation (CHK1): effective suppression

Cc1ncccc1-c1cnc(NCc2c(F)ccc3c2CCO3)n2cnnc12 [MAK683]
cell viability of EZH2^Y666N clones versus wild-type EZH2 [2]: overcomes EZH2^Y666N-mediated resistance

Cc1cc(C)c(CNC(=O)c2cc(Cl)c3c(c2C)O[C@@](C)([C@H]2CC[C@H](N(C)C)CC2)O3)c(=O)[nH]1 [valemetostat]
cell viability of EZH2^Y666N clones versus wild-type EZH2 [2]: confers resistance

COc1cc(Nc2ncc3c(n2)-c2ccc(Cl)cc2C(c2c(F)cccc2OC)=NC3)ccc1C(=O)O [alisertib]
overcoming TAZ resistance in RB1^del G401 cells (RB1^del G401 cells [1]): able to overcome TAZ resistance

CCN(CCCOc1ccc2c(Nc3cc(CC(=O)Nc4cccc(F)c4)n[nH]3)ncnc2c1)CCOP(=O)(O)O [barasertib]
EC50 (RB1^WT G401 cells [3]): 6.5 ± 0.5 nM
EC50 (RB1^del G401 cells [1]; G401 RB1^del E1 clone): 5.5 ± 0.6 nM
EC50 (RB1^del G401 cells [1]; G401 RB1^del F2 clone): 5.9 ± 0.9 nM

CCN(c1cc(-c2ccc(CN3CCOCC3)cc2)cc(C(=O)NCc2c(C)cc(C)[nH]c2=O)c1C)C1CCOCC1 [TAZ, Tazemetostat]
area under the curve (AUC) of TAZ dose responses (MRT and ES cell lines; resistant ES1, VAESBJ, ES2, EPI544, MP-MRT-AN cell lines): ≤ 0.3
area under the curve (AUC) of TAZ dose responses (MRT and ES cell lines; sensitive G401, KP-MRT-NS, TTC642, A204, TM8716, KP-MRT-RY cell lines): > 0.3
proportion of cells in G1 phase upon TAZ treatment (RB1^del G401 cells [4]; RB1^del E1 clone): 31%
proportion of cells in G1 phase upon TAZ treatment (RB1^del G401 cells [4]; RB1^del F2 clone): 28%
proportion of cells in G1 phase upon TAZ treatment (RB1^WT G401 cells [5]): 50%
nuclear γH2AX fluorescence, median normalized level (G401 cells): 0.12
